Test system: ALS7 (C9orf72) cell-derived motor neurons
Test: RNA foci inhibitory activity (FISH with Cy3 probe, high-content analysis)
Assay type: cell-based, human
Conditions: one day after addition, vs DMSO
Source text: Using ALS7 (C9orf72) cell line described in K. Imamura et al, Science Translational Medicine 2017, 9, eaaf3962, the effect of the compound used in the present invention on RNA foci was examined. The cell line is stable cell line prepared by introducing the tetracycline-induced Lhx3, Ngn2 and Isl1 genes into iPS cell lines established from a familial ALS patient with abnormal expansion of the G4C2 repeat of the C9orf72 gene. Therefore, ALS7 (C9orf72) cell is an ALS cell model that rapidly (within about 7 days) differentiates into motor neurons when tetracycline or a derivative thereof is added to the medium, and after differentiation, spontaneously goes on to cell death (see the above documents). […] ALS7 (C9orf72) cells were cultured on feeder cells (mitomycin-treated SNL cells) using an iPS cell maintenance medium consisting of Primate ES Cell medium (ReproCell, […]), 4 ng/ml hbFGF (Wako, 060-04543), 50 μg/ml G418 (Nacalai, 09380-86) and Penicillin-Streptomycin (Thermo Fisher Scientific, 15140-122). The method for seeding ALS7 (C9orf72) cells on an assay plate is as follows. Matrigel (BD Falcon, D2650) was diluted 20-fold with an assay medium consisting of DMEM/F-12 (1:1) (Thermo Fisher Scientific, 11330-057), N2 supplement (Thermo Fisher Scientific, 17502-048), Penicillin-Streptomycin (Thermo Fisher Scientific, 15140-122), 10 ng/ml recombinant human BDNF (PeproTech, 450-02), 10 ng/ml recombinant human GDNF (PeproTech, 450-10), 10 ng/ml recombinant human NT-3 (PeproTech, 450-03), 1 μM Retinoic acid (Sigma, R2625), 1 μg/ml Doxycycline (Clontech, 631311), 1 μM SAG (Enzo life sciences, ALX-270-426-M001) and 10 μ[…] (Wako, 253-00513), and then a 384-well plate (CellCarrier-384 Ultra, PerkinElmer, 6057300) was coated with the diluted solution. The ALS7 (C9orf72) cells were then suspended in the assay medium, and seeded on the matrigel-coated assay plate at 1×10^4 cells per well. The fluorescent staining method of RNA foci in motor neurons differentiated from ALS7 (C9orf72) cells is as follows. For the ALS7 (C9orf72) cells seeded on the assay plate according to the method described in the previous section, the assay medium containing no Y-27632 was added to the plate four days after seeding, and the cells were cultured. Seven days after seeding, the assay medium (Retinoic Acid, Doxycycline, SAG, Y-27632-free) containing the test compound at a predetermined concentration was added to the plate by medium exchange, and one day after addition of the test compound, PFA (Wako, 163-20145) was added to the plate to fix the cells. After washing with PBS (Wako, 045-29795) was repeated three times, ice-cold methanol (Wako, 131-01826) was added to the plate, and the plate was allowed to stand for 10 minutes at room temperature. DNA probe [[NT] ID NO:1), SIGMA genosys, custom synthesis] was denatured at 80° C. for 75 sec, prepared to 2 μg/μL in a hybri buffer consisting of 50% formamide (Wako, 066-02301), 2×SSC (Nippon Gene, 319-90015), 50 mM sodium phosphate (TEKNOVA, […]), 10% Dextran sulfate (SIGMA, […]), 0.1 mg/mL yeast tRNA ([…], 15401029) and RNase free water (QIAGEN, 129112), and added to the plate, and the plate was allowed to stand at 37° C. for 16 to 24 hrs to bind the probe to the RNA foci. A wash buffer consisting of 50% formamide, 1×SSC and RNase free water was added to the plate, and the plate was allowed to stand at 37° C. for 30 minutes, followed by washing with PBS. Hoechst (invitrogen, H3569) diluted 5000-fold with by PBS was added to the plate, and the plate was allowed to stand for 20 minutes at room temperature to stain the cell nuclei, followed by washing with PBS. The RNA foci in the cell nuclei were detected by analyzing the above treated plate (measuring Cy3 fluorescence) with a high-content analyzer. The high-content analyzer used was Opera Phenix from PerkinElmer. […] The method for detecting the activity of the test compound is as follows.

Compound	RNA foci inhibitory activity % (1 μM test compound) [%]	RNA foci inhibitory activity % (3 μM test compound) [%]	RNA foci inhibitory activity % (10 μM test compound) [%]
CS(=N)(=O)Cc1cccc(Nc2ncnc(-c3ccccc3OCc3ccc(Cl)c(Cl)c3)n2)c1 (stereo not drawn) [Compound No. 5, 4-{2-[(3,4-dichlorophenyl)methoxy]phenyl}-N-{3-[(S-methanesulfonimidoyl)methyl]phenyl}-1,3,5-triazin-2-amine]	61	44	50
COc1ccccc1-c1ncnc(Nc2cccc(CS(N)(=O)=O)c2)n1 [Compound No. 2, 1-(3-{[4-(2-methoxyphenyl)-1,3,5-triazin-2-yl]amino}phenyl)methanesulfonamide]	20	49	55
NS(=O)(=O)Cc1cccc(Nc2ncnc(-c3ccccc3OCc3ccccc3)n2)c1.O=C(O)C(F)(F)F [Compound No. 4a, 1-[3-({4-[2-(benzyloxy)phenyl]-1,3,5-triazin-2-yl}amino)phenyl]methanesulfonamide trifluoroacetate]	50	45	45
CCOC(=O)N=S(C)(=O)Cc1cccc(Nc2ncnc(-c3cccc4c3OCCO4)n2)c1 (stereo not drawn) [Compound No. 6, ethyl {[(3-{[4-(2,3-dihydro-1,4-benzodioxin-5-yl)-1,3,5-triazin-2-yl]amino}phenyl)methyl](methyl)oxo-λ^6-sulfanylidene}carbamate]	62	48	48
NS(=O)(=O)Cc1cccc(Nc2ncnc(-c3ccccc3OCc3ccccc3)n2)c1 [Compound No. 4b, 1-[3-({4-[2-(benzyloxy)phenyl]-1,3,5-triazin-2-yl}amino)phenyl]methanesulfonamide]	52	41	47
CCOC(=O)N=S(C)(=O)Cc1cccc(Nc2ncnc(-c3cccc4c3OCC4)n2)c1 (stereo not drawn) [Compound No. 7, ethyl {[(3-{[4-(2,3-dihydro-1-benzofuran-7-yl)-1,3,5-triazin-2-yl]amino}phenyl)methyl](methyl)oxo-λ^6-sulfanylidene}carbamate]	47	55	43
COc1cc(F)ccc1-c1ncnc(Nc2cccc(CS(C)(=N)=O)c2)n1 (stereo not drawn) [Compound No. 1, 4-(4-fluoro-2-methoxyphenyl)-N-{3-[(S-methanesulfonimidoyl)methyl]phenyl}-1,3,5-triazin-2-amine]	48	58	46
COc1cc(Cl)ccc1-c1ncnc(Nc2cccc(CS(N)(=O)=O)c2)n1 [Compound No. 3, 1-(3-{[4-(4-chloro-2-methoxyphenyl)-1,3,5-triazin-2-yl]amino}phenyl)methanesulfonamide]	16	55	51
